ChEMBL document CHEMBL1201862, “PubChem BioAssay data set” (2004)
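1) Cells in 96-well plates. 2) Compound, 48 h, 5 concentrations. 3) Linear interpolation between surrounding doses. 4) Unreached endpoint = highest concentration. Abbreviation: GI50, concentration required for 50% inhibition of growth.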 The source made the active and inactive calls. Rule as the data show it: active = GI50 up to about 1.1 µM and inactive = higher.

Key:
Assay in all cases: growth of human tumour cells (NCI), 48 h
SN12C = test system: SN12C
OVCAR-3 = test system: OVCAR-3
EKVX = test system: EKVX
786-0 = test system: 786-0
OVCAR-5 = test system: OVCAR-5
SR = test system: SR
CCRF-CEM = test system: CCRF-CEM
MDA-N = test system: MDA-N
NCI-H23 = test system: NCI-H23
UO-31 = test system: UO-31
SF-539 = test system: SF-539
HCT-116 = test system: HCT-116
UACC-257 = test system: UACC-257
K562 = test system: K562
MDA-MB-435 = test system: MDA-MB-435
A549 = test system: A549
NCI/ADR-RES = test system: NCI/ADR-RES
BT-549 = test system: BT-549
OVCAR-4 = test system: OVCAR-4

Row | SMILES | GI50 (SN12C) | GI50 (OVCAR-3) | GI50 (EKVX) | GI50 (786-0) | GI50 (OVCAR-5) | GI50 (SR) | GI50 (CCRF-CEM) | GI50 (MDA-N) | GI50 (NCI-H23) | GI50 (UO-31) | GI50 (SF-539) | GI50 (HCT-116) | GI50 (UACC-257) | GI50 (K562) | GI50 (MDA-MB-435) | GI50 (A549) | GI50 (NCI/ADR-RES) | GI50 (BT-549) | GI50 (OVCAR-4)
1 | CNC(=O)OCc1c(COC(=O)NC)c(C)n(-c2ccc(Br)cc2)c1C | 9.16 µM (inactive) | 14.6 µM (inactive) | 27.3 µM (inactive) | 9.82 µM (inactive) | 12.9 µM (inactive) | 1.38 µM (inactive) | 4.85 µM (inactive) | 15.7 µM (inactive) | 14.3 µM (inactive) | 5.57 µM (inactive) | 15.4 µM (inactive) | 10.8 µM (inactive) | 15.3 µM (inactive) | 15.8 µM (inactive) | 16.8 µM (inactive) | 16.9 µM (inactive) | 16.3 µM (inactive) |  | 
2 | COC(=O)C1=C(C(=O)Nc2cccnc2Cl)N(c2ccc(OC)cc2[N+](=O)[O-])C(c2ccc(C)cc2)=CC1c1ccc(OC)cc1OC (stereo not given) | 15.4 µM (inactive) | 8.57 µM (inactive) | 21.9 µM (inactive) | 12 µM (inactive) | 29 µM (inactive) | 2.85 µM (inactive) | 4.53 µM (inactive) |  | 22.1 µM (inactive) | 12.4 µM (inactive) | 4.76 µM (inactive) | 9.98 µM (inactive) | 25.8 µM (inactive) | 4.67 µM (inactive) | 5.64 µM (inactive) | 6.3 µM (inactive) | 17.6 µM (inactive) | 8.85 µM (inactive) | 33.6 µM (inactive)
3 | CC(=O)/C(=C\Nc1c(C)n(C)n(C)c1=O)C(=O)c1ccccc1 | > 50 µM (inactive) | > 50 µM (inactive) | > 50 µM (inactive) | > 50 µM (inactive) | > 50 µM (inactive) | > 50 µM (inactive) | > 50 µM (inactive) | > 50 µM (inactive) | > 50 µM (inactive) | > 50 µM (inactive) | > 50 µM (inactive) | > 50 µM (inactive) | > 50 µM (inactive) | > 50 µM (inactive) | > 50 µM (inactive) | > 50 µM (inactive) |  | > 50 µM (inactive) | > 50 µM (inactive)
4 | C=CC1CN(C(=O)OCC)N(C(=O)OCC)C1CCc1ccccc1 (stereo not given) | > 100 µM (inactive) |  | 72.4 µM (inactive) | > 100 µM (inactive) | > 100 µM (inactive) | 65.9 µM (inactive) | 72.4 µM (inactive) | > 100 µM (inactive) | 61.9 µM (inactive) | 74.1 µM (inactive) |  | 67.1 µM (inactive) | > 100 µM (inactive) | 50.8 µM (inactive) | > 100 µM (inactive) | 57.8 µM (inactive) | 85.1 µM (inactive) |  | 57.4 µM (inactive)
5 | C/C(=C\CO)CC/C=C(\C)CNc1c(F)c(F)c(F)c(F)c1F | 20.2 µM (inactive) | 20.2 µM (inactive) | 30.7 µM (inactive) | 44.1 µM (inactive) | 36.5 µM (inactive) | 28.3 µM (inactive) | 28.1 µM (inactive) |  | > 100 µM (inactive) | 35.6 µM (inactive) | 20.8 µM (inactive) | 50.8 µM (inactive) | 21.3 µM (inactive) | 33 µM (inactive) | 22.9 µM (inactive) | 28.7 µM (inactive) | 30.8 µM (inactive) | 6.4 µM (inactive) | 44.5 µM (inactive)
6 | O=C(/C(=C\C(=O)c1cccs1)c1ccsc1)c1ccc(Br)cc1 | > 100 µM (inactive) |  | 92.5 µM (inactive) | > 100 µM (inactive) |  | > 100 µM (inactive) | > 100 µM (inactive) | > 100 µM (inactive) | 80.2 µM (inactive) | > 100 µM (inactive) | > 100 µM (inactive) | > 100 µM (inactive) | 42.8 µM (inactive) | > 100 µM (inactive) | > 100 µM (inactive) | > 100 µM (inactive) | 88.5 µM (inactive) |  | > 10 µM (inactive)
7 | COc1ccc(C(=O)Nc2ccccc2C#N)cc1 | > 100 µM (inactive) | > 100 µM (inactive) | > 100 µM (inactive) | > 100 µM (inactive) | > 100 µM (inactive) | > 100 µM (inactive) | > 100 µM (inactive) |  | > 100 µM (inactive) |  | > 100 µM (inactive) | > 100 µM (inactive) | > 100 µM (inactive) | > 100 µM (inactive) |  | > 100 µM (inactive) |  |  | > 100 µM (inactive)
8 | CCSC1=N/C(=C\c2ccc(N(C)C)cc2)C(Cl)=N1 | > 100 µM (inactive) | > 100 µM (inactive) | > 100 µM (inactive) | > 100 µM (inactive) | > 100 µM (inactive) |  | > 100 µM (inactive) | > 100 µM (inactive) | > 100 µM (inactive) | > 100 µM (inactive) |  | > 100 µM (inactive) | > 100 µM (inactive) |  | > 100 µM (inactive) | > 100 µM (inactive) | > 100 µM (inactive) | > 100 µM (inactive) | > 100 µM (inactive)
9 | O=C1CC2CC(CC3(CO3)C2)C1F (stereo not given) | > 100 µM (inactive) |  | > 100 µM (inactive) | > 100 µM (inactive) | > 100 µM (inactive) | > 100 µM (inactive) | > 100 µM (inactive) | > 100 µM (inactive) | > 100 µM (inactive) | > 100 µM (inactive) |  | > 100 µM (inactive) | > 100 µM (inactive) | > 100 µM (inactive) | > 100 µM (inactive) | > 100 µM (inactive) | > 100 µM (inactive) |  | > 100 µM (inactive)
10 | CCOC(=O)c1c(C)cc(=O)n2c1[nH]c1ccccc12 | 37.4 µM (inactive) | > 100 µM (inactive) | > 100 µM (inactive) | 63.5 µM (inactive) | > 100 µM (inactive) |  | > 100 µM (inactive) | 64 µM (inactive) | > 100 µM (inactive) | > 100 µM (inactive) | 31 µM (inactive) | 57.1 µM (inactive) | > 100 µM (inactive) | 50.9 µM (inactive) |  | 82.2 µM (inactive) | > 100 µM (inactive) | > 100 µM (inactive) | 
11 | COc1ccc2c(c1)CCN1CCCc3ccc(OC)cc3C21 (stereo not given) | 50 µM (inactive) | 92 µM (inactive) | > 100 µM (inactive) | 49.1 µM (inactive) | 89.9 µM (inactive) | 41.5 µM (inactive) | 42.6 µM (inactive) |  | 68.5 µM (inactive) | 22.5 µM (inactive) | 50.4 µM (inactive) | 31.3 µM (inactive) | 73.8 µM (inactive) | 36 µM (inactive) | 36.4 µM (inactive) | 75 µM (inactive) | 42.9 µM (inactive) | 34 µM (inactive) | > 100 µM (inactive)
12 | CN(C)/C=N/S(=O)(=O)c1nn2c(C=O)c(-c3ccc(-c4ccccc4)cc3)nc2s1 | 1.97 µM (inactive) | 1.92 µM (inactive) | 5.89 µM (inactive) | 0.927 µM (active) | 6.89 µM (inactive) | 0.49 µM (active) | 0.145 µM (active) |  | 1.78 µM (inactive) | 1.4 µM (inactive) | 2.54 µM (inactive) | 1 µM (active) | 2.97 µM (inactive) | 0.316 µM (active) | 1.69 µM (inactive) | 11.5 µM (inactive) | 8.57 µM (inactive) | 0.83 µM (active) | 1.96 µM (inactive)
13 | NC1CCCCC1.O=C(O)C(CP(=O)(O)O)=C(Cl)Cl | > 100 µM (inactive) | > 100 µM (inactive) | > 100 µM (inactive) | > 100 µM (inactive) | > 100 µM (inactive) | > 100 µM (inactive) | > 100 µM (inactive) |  | > 100 µM (inactive) | > 100 µM (inactive) | > 100 µM (inactive) | > 100 µM (inactive) | > 100 µM (inactive) |  |  | > 100 µM (inactive) |  |  | 
14 | CSc1cnn(CCC#N)c(=O)n1 | > 100 µM (inactive) |  | > 100 µM (inactive) | > 100 µM (inactive) | > 100 µM (inactive) | 40.9 µM (inactive) | 31 µM (inactive) | > 100 µM (inactive) | > 100 µM (inactive) | > 100 µM (inactive) | > 100 µM (inactive) | > 100 µM (inactive) | 62.5 µM (inactive) | 33.1 µM (inactive) | > 100 µM (inactive) | > 100 µM (inactive) |  | > 100 µM (inactive) | 
15 | C/C(=N\NC(=S)N1CCCCC1)c1cccc(C)n1 | 0.0108 µM (active) | < 0.01 µM (active) | < 0.01 µM (active) | < 0.01 µM (active) | 0.149 µM (active) | < 0.0173 µM (active) | < 0.0106 µM (active) | 0.0871 µM (active) | < 0.01 µM (active) | 0.0414 µM (active) | < 0.0404 µM (active) | < 0.01 µM (active) | < 0.01 µM (active) | < 0.01 µM (active) | 0.0944 µM (active) | 0.0325 µM (active) | < 0.01 µM (active) |  | 36.5 µM (inactive)
16 | N#Cc1c(N)[nH]c2ccc(Sc3ccccc3)cc12 | 0.574 µM (active) | 0.215 µM (active) | 0.659 µM (active) | 0.152 µM (active) | 0.964 µM (active) |  | 0.151 µM (active) |  | 0.323 µM (active) | 0.236 µM (active) | 0.234 µM (active) | 0.111 µM (active) | 12.8 µM (inactive) | < 0.0635 µM (active) | < 0.107 µM (active) | 0.282 µM (active) | 0.101 µM (active) | 1.16 µM (inactive) | 0.675 µM (active)
17 | O=C(CP(=O)(c1ccccc1)c1ccccc1)c1cccc(C(=O)CP(=O)(c2ccccc2)c2ccccc2)c1 | > 100 µM (inactive) |  | 56.8 µM (inactive) | 37.8 µM (inactive) | 58.6 µM (inactive) | > 100 µM (inactive) | > 100 µM (inactive) |  |  | 20.3 µM (inactive) | 29.7 µM (inactive) | 48.9 µM (inactive) | > 100 µM (inactive) | > 100 µM (inactive) | > 100 µM (inactive) | > 100 µM (inactive) | > 100 µM (inactive) |  | > 100 µM (inactive)
